According to patent US12692249B2, “WDR5 inhibitors and modulators” (Vanderbilt University, priority 2019, dated 2026):
Like-named read-outs stand apart in the source and are kept apart here.

Test system: MV4:11 human cancer cell lines
Experiment: Cellular viability / anti-proliferative assay, CellTiter-Glo, 5 day protocol
Format: cell-based
Conditions: Homo sapiens, MV4-11, 120 h, read-out: GI50 on cellular proliferation of MV4:11 human cancer cell lines
Experimental: Cellular Viability of Human Tumor Cell Lines
Anti-proliferative activity using MLL-harboring cell lines. MV-4-11 and K562 cells are grown in IMDM media supplemented with 10% FBS and 1% penicillin/streptomycin, Molm-13 cells are cultured in RPMI-1640 media supplemented with 10% FBS and 1% penicillin/streptomycin. Viability assays are performed by dispensing 200 cells at 7200 cells/mL into each well of an opaque 384-well plate and adding compounds at the indicated concentrations in a final volume, of 32 μL. and a final concentration of DMSO of 0.3% for all samples. A certain range of compound concentrations is made through a series of 2-fold dilutions starting 30 μM at the highest, total 22 dilutions. After a set incubation period, 5 day protocol, the viability of cells in each well is assessed using the CellTiter-Glo assay (Promega), read on a 96 Microplane Luminometer (Cytation 3, BioTek). Serial dilutions of each cell type are performed in all assays to generate standard curves and the final densities of cells are determined within the dynamic range of the instrument. GI50 values are calculated based on XLfit software (IDBS, Guildford, UK) with Sigmoidal Dose-Response Model. Each compound is tested in minimum of two replicates. Data are expressed as mean.

[1] = MV4:11 cells, 5 day incubation, CellTiter-Glo, mean of at least two replicates

Row | Structure (SMILES) | GI50 [1] | GI50
1 | CCc1cc(C2=CCN(C)CC2)c2nc(C)cc(N3CCc4c(cc(Cn5ccnc5)cc4-c4cn(C)nc4C(F)(F)F)C3=O)c2c1 [Example 147, 7-((1H-imidazol-1-yl)methyl)-2-(6-ethyl-2-methyl-8-(1-methyl-1,2,3,6-tetrahydropyridin-4-yl)quinolin-4-yl)-5-(1-methyl-3-(trifluoromethyl)-1H-pyrazol-4-yl)-3,4-dihydroisoquinolin-1(2H)-one] | 43 nM | –
2 | CCc1cc(C(=O)NC)c2nccc(N3CCc4c(cc(Cn5ccnc5)cc4-c4cccnc4C(F)(F)F)C3=O)c2c1 [Example 199, 4-(7-((1H-imidazol-1-yl)methyl)-1-oxo-5-(2-(trifluoromethyl)pyridin-3-yl)-3,4-dihydroisoquinolin-2(1H)-yl)-6-ethyl-N-methylquinoline-8-carboxamide] | 131 nM | –
3 | CCc1cc(C2CCN(C)CC2)c2nc(C)cc(N3CCc4c(cc(Cn5ccnc5)cc4-c4cn(C)nc4C(F)(F)F)C3=O)c2c1 [Example 148, 7-((1H-Imidazol-1-yl)methyl)-2-(6-ethyl-2-methyl-8-(1-methylpiperidin-4-yl)quinolin-4-yl)-5-(1-methyl-3-(trifluoromethyl)-1H-pyrazol-4-yl)-3,4-dihydroisoquinolin-1(2H)-one] | < 20 nM | –
4 | CCc1cc(Br)c2nccc(N3CCc4c(cc(Cn5ccnc5)cc4-c4cn(C)nc4C(F)(F)F)C3=O)c2c1 [Example 34, 7-((1H-imidazol-1-yl)methyl)-2-(8-bromo-6-ethylquinolin-4-yl)-5-(1-methyl-3-(trifluoromethyl)-1H-pyrazol-4-yl)-3,4-dihydroisoquinolin-1(2H)-one] | < 20 nM | –
5 | CCc1cc(C(=O)NCCO)c2nccc(N3CCc4c(cc(Cn5ccnc5)cc4-c4cn(C)nc4C(F)(F)F)C3=O)c2c1 [Example 168, 4-(7-((1H-Imidazol-1-yl)methyl)-5-(1-methyl-3-(trifluoromethyl)-1H-pyrazol-4-yl)-1-oxo-3,4-dihydroisoquinolin-2(1H)-yl)-6-ethyl-N-(2-hydroxyethyl)quinoline-8-carboxamide] | 46 nM | –
6 | COc1ccc2nc(C)cc(N3CCc4c(cc(Cn5ccnc5)cc4-c4cn(C)nc4C(F)(F)F)C3=O)c2c1 [Example 14, 7-((1H-Imidazol-1-yl)methyl)-2-(6-methoxy-2-methylquinolin-4-yl)-5-(1-methyl-3-(trifluoromethyl)-1H-pyrazol-4-yl)-3,4-dihydroisoquinolin-1(2H)-one] | 44 nM | –
7 | CCc1cc(C(=O)NC)c2nc(C)cc(N3CCc4c(cc(Cn5ccnc5)cc4-c4cn(C)nc4C(F)(F)F)C3=O)c2c1 [Example 178] | < 20 nM | –
8 | CCc1cc(N2CCOCC2)c2nc(C)cc(N3CCc4c(cc(Cn5ccnc5)cc4-c4cn(C)nc4C(F)(F)F)C3=O)c2c1 [Example 145, 7-((1H-Imidazol-1-yl)methyl)-2-(6-ethyl-2-methyl-8-morpholinoquinolin-4-yl)-5-(1-methyl-3-(trifluoromethyl)-1H-pyrazol-4-yl)-3,4-dihydroisoquinolin-1(2H)-one] | 36 nM | –
9 | CCc1cc(C(=O)NCC2CCCC2)c2nccc(N3CCc4c(cc(Cn5ccnc5)cc4-c4cn(C)nc4C(F)(F)F)C3=O)c2c1 [Example 170, 4-(7-((1H-Imidazol-1-yl)methyl)-5-(1-methyl-3-(trifluoromethyl)-1H-pyrazol-4-yl)-1-oxo-3,4-dihydroisoquinolin-2(1H)-yl)-N-(cyclopentylmethyl)-6-ethylquinoline-8-carboxamide] | 212 nM | –
10 | CCc1cc(C(=O)NC2CCN(C)C2)c2nccc(N3CCc4c(cc(Cn5ccnc5)cc4-c4cn(C)nc4C(F)(F)F)C3=O)c2c1 (stereo not drawn) [Example 193, 4-(7-((1H-Imidazol-1-yl)methyl)-5-(1-methyl-3-(trifluoromethyl)-1H-pyrazol-4-yl)-1-oxo-3,4-dihydroisoquinolin-2(1H)-yl)-6-ethyl-N-(1-methylpyrrolidin-3-yl)quinoline-8-carboxamide] | < 20 nM | –
11 | Cc1cc(N2CCN(C)CC2)c2cncc(N3CCc4c(cc(Cn5ccnc5)cc4-c4cn(C)nc4C(F)(F)F)C3=O)c2c1 [Example 100, 7-((1H-Imidazol-1-yl)methyl)-6′-methyl-5-(1-methyl-3-(trifluoromethyl)-1H-pyrazol-4-yl)-8′-(4-methylpiperazin-1-yl)-3,4-dihydro-1H-[2,4′-biisoquinolin]-1-one] | < 20 nM | –
12 | CCc1cc(C(=O)O)c2nccc(N3CCc4c(cc(Cn5ccnc5)cc4-c4cn(C)nc4C(F)(F)F)C3=O)c2c1 [Example 92, 4-(7-((1H-imidazol-1-yl)methyl)-5-(1-methyl-3-(trifluoromethyl)-1H-pyrazol-4-yl)-1-oxo-3,4-dihydroisoquinolin-2(1H)-yl)-6-ethylquinoline-8-carboxylic acid] | 388 nM | –
13 | COc1cc(-c2n[nH]c(=O)o2)c2nc(C)cc(N3CCc4c(cc(Cn5ccnc5)cc4-c4cn(C)nc4C(F)(F)F)C3=O)c2c1 [Example 180, 5-(4-(7-((1H-Imidazol-1-yl)methyl)-5-(1-methyl-3-(trifluoromethyl)-1H-pyrazol-4-yl)-1-oxo-3,4-dihydroisoquinolin-2(1H)-yl)-6-methoxy-2-methylquinolin-8-yl)-1,3,4-oxadiazol-2(3-1)-one] | 68 nM | –
14 | CCc1cc(OC)c2nccc(N3CCc4c(cc(Cn5ccnc5)cc4-c4cccnc4C(F)(F)F)C3=O)c2c1 [Example 185, 7-((1H-Imidazol-1-yl)methyl)-2-(6-ethyl-8-methoxyquinolin-4-yl)-5-(2-(trifluoromethyl)pyridin-3-yl)-3,4-dihydroisoquinolin-1(2H)-one] | 55 nM | –
15 | CCc1cc(N2CCN(C)C(=O)C2)c2nc(C)cc(N3CCc4c(cc(Cn5ccnc5)cc4-c4cn(C)nc4C(F)(F)F)C3=O)c2c1 [Example 111, 7-((1H-Imidazol-1-yl)methyl)-2-(6-ethyl-2-methyl-8-(4-methyl-3-oxopiperazin-1-yl)quinolin-4-yl)-5-(1-methyl-3-(trifluoromethyl)-1H-pyrazol-4-yl)-3,4-dihydroisoquinolin-1(2H)-one] | < 20 nM | –
16 | COc1cc(C(=O)NC(C)C)c2nccc(N3CCc4c(cc(Cn5ccnc5)cc4-c4cn(C)nc4C(F)(F)F)C3=O)c2c1 [Example 47, 4-(7-((1H-Imidazol-1-yl)methyl)-5-(1-methyl-3-(trifluoromethyl)-1H-pyrazol-4-yl)-1-oxo-3,4-dihydroisoquinolin-2(1H)-yl)-N-isopropyl-6-methoxyquinoline-8-carboxamide] | 54 nM | –
17 | CCc1cc(C(=O)NCCN(C)C)c2nccc(N3CCc4c(cc(Cn5ccnc5)cc4-c4cn(C)nc4C(F)(F)F)C3=O)c2c1 [Example 166, 4-(7-((1H-Imidazol-1-yl)methyl)-5-(1-methyl-3-(trifluoromethyl)-1H-pyrazol-4-yl)-1-oxo-3,4-dihydroisoquinolin-2(1H)-yl)-N-(2-(dimethylamino)ethyl)-6-ethylquinoline-8-carboxamide] | – | < 20 nM
18 | COc1cc(N2CCN(C(C)=O)CC2)c2nccc(N3CCc4c(cc(Cn5ccnc5)cc4-c4cn(C)nc4C(F)(F)F)C3=O)c2c1 [Example 32, 7-((1H-imidazol-1-yl)methyl)-2-(8-(4-acetylpiperazin-1-yl)-6-methoxyquinolin-4-yl)-5-(1-methyl-3-(trifluoromethyl)-1H-pyrazol-4-yl)-3,4-dihydroisoquinolin-1(2H)-one] | < 20 nM | –
19 | COc1cc(N2CCN(C)C(=O)C2)c2nccc(N3CCc4c(cc(Cn5ccnc5)cc4-c4cn(C)nc4C(F)(F)F)C3=O)c2c1 [Example 33, 7-((1H-Imidazol-1-yl)methyl)-2-(6-methoxy-8-(4-methyl-3-oxopiperazin-1-yl)quinolin-4-yl)-5-(1-methyl-3-(trifluoromethyl)-1H-pyrazol-4-yl)-3,4-dihydroisoquinolin-1(2H)-one] | < 20 nM | –
20 | CCc1cc(C(=O)NC2CN(C(C)=O)C2)c2nccc(N3CCc4c(cc(Cn5ccnc5)cc4-c4cn(C)nc4C(F)(F)F)C3=O)c2c1 [Example 241] | < 20 nM | –
21 | CCOC(=O)c1cc(CC)cc2c(N3CCc4c(cc(Cn5ccnc5)cc4-c4cn(C)nc4C(F)(F)F)C3=O)ccnc12 [Example 91, Ethyl 4-(7-((1H-imidazol-1-yl)methyl)-5-(1-methyl-3-(trifluoromethyl)-1H-pyrazol-4-yl)-1-oxo-3,4-dihydroisoquinolin-2(1H)-yl)-6-ethylquinoline-8-carboxylate] | < 20 nM | –
22 | COc1cc(C2=CCN(C)CC2)c2nc(C)cc(N3CCc4c(cc(Cn5ccnc5)cc4-c4cn(C)nc4C(F)(F)F)C3=O)c2c1 [Example 154, 7-((1H-Imidazol-1-yl)methyl)-2(6-methoxy-2-methyl-8-(1-methyl-1,2,3,6-tetrahydropyridin-4-yl)quinolin-4-yl)-5-(1-methyl-3-(trifluoromethyl)-1H-pyrazol-4-yl)-3,4-dihydroisoquinolin-1(2H)-one] | 33 nM | –
23 | COc1cc(C(=O)NC2CN(C(=O)c3cscn3)C2)c2nccc(N3CCc4c(cc(Cn5ccnc5)cc4-c4cn(C)nc4C(F)(F)F)C3=O)c2c1 [Example 227] | < 20 nM | –
24 | CCc1cc(C(=O)NCc2ccncc2)c2nccc(N3CCc4c(cc(Cn5ccnc5)cc4-c4cn(C)nc4C(F)(F)F)C3=O)c2c1 [Example 163, 4-(7-((1H-Imidazol-1-yl)methyl)-5-(1-methyl-3-(trifluoromethyl)-1H-pyrazol-4-yl)-1-oxo-3,4-dihydroisoquinolin-2(1H)-yl)-6-ethyl-N-(pyridin-4-ylmethyl)quinoline-8-carboxamide] | 56 nM | –
